pEC50: −log10 of the molar value.
What was measured:
mu opioid receptor (MOR) [1] = biological target: T1, mu opioid receptor (MOR) (Homo sapiens, UniProt P35372); assay: Hit Hunter cAMP signaling assay (adenylyl cyclase inhibition), PAM mode with EC20 endomorphin-1; format: cell-based; conditions: for cAMP Max. Resp.: maximal response for adenylyl cyclase inhibition
mu opioid receptor (MOR) [2] = biological target: T1, mu opioid receptor (MOR); assay: PathHunter β-arrestin recruitment assay, PAM mode with EC20 endomorphin-1; format: cell-based; conditions: for β-arr Max. Resp.: maximal response for β-arrestin recruitment; for pEC50: β-arrestin recruitment, read-out: β-arr. EC50
Method: The effects of MOR PAMs and MOR SAMs on receptor activity were assayed using the PathHunter enzyme complementation assay technology (DiscoveRx, CA). A description of the technology employed is as follows.
Beta-Arrestin Pathway: The PathHunter β-arrestin assay monitors the activation of a GPCR in a homogenous, non-imaging assay format using a technology developed by DiscoveRx called Enzyme Fragment Complementation (EFC) with beta-galactosidase (β-Gal) as the functional reporter. […] EA is fused to β-Arrestin and ED is fused to the GPCR of interest. When the GPCR is activated and β-arrestin is recruited to the receptor, ED and EA complementation occurs, restoring β-gal activity, which is measured using chemiluminescent PathHunter Detection Reagents.
In this manner an EC50 for each test compound, and percent maximal response for each test compound, were determined for both the β-arrestin and cAMP pathways. Though the pharmacological effects of a given signal bias can be hypothesized (Raehal et al. (2011) Pharmacol. Rev. 63:1001-1019), it is not possible to know with certainty which bias ratio will be most advantageous in a clinical setting. […] Kenakin 2015a, supra. The information associated with the compounds detailed herein is the first large data set available for the prediction of ligand bias for an MOR PAM.

[3] = adenylyl cyclase inhibition, read-out: cAMP EC50
[4] = cAMP EC50, adenylyl cyclase inhibition

T1 sequence (P35372 whole entry): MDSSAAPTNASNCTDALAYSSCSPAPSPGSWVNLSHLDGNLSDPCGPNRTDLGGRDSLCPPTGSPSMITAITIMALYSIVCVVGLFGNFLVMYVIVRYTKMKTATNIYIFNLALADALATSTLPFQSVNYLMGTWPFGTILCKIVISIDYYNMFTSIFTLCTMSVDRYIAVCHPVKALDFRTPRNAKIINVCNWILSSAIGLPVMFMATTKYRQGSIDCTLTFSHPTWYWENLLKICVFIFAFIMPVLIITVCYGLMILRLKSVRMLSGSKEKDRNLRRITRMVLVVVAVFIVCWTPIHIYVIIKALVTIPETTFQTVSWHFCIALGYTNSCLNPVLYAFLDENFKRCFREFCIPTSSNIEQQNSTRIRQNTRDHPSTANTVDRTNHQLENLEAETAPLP

Structure (SMILES)	pEC50 (mu opioid receptor (MOR) [1]; [3])	cAMP Max. Resp. (mu opioid receptor (MOR) [1])	β-arr Max. Resp. (mu opioid receptor (MOR) [2])	pEC50 (mu opioid receptor (MOR) [2])	pEC50 (mu opioid receptor (MOR) [1]; [4])
O=S(=O)(c1ccc(Cl)cc1)N1CCCCC1c1cccc(Cl)c1 (racemic) [compound 61]	< 5.68	E (E represents a maximal response of 40-60%)	F (F represents a maximal response of > 60%)	< 5.68	
Fc1cc(C2CC(F)(F)CCN2c2nc(Cl)ncc2F)cc(C(F)(F)F)c1 (stereo not drawn) [compound 198]		F (F represents a maximal response of > 60%)	F (F represents a maximal response of > 60%)	5.68 to 6.15	5.68 to 6.15
Fc1cnc(Cl)nc1N1CCCCC1c1ccnc2ccccc12 (stereo not drawn) [compound 283]		F (F represents a maximal response of > 60%)	D (D represents a maximal response of < 40%)	< 5.68	< 5.68
Fc1cnc(Cl)cc1N1CCCCC1c1cccc(C(F)(F)F)c1 (stereo not drawn) [compound 261]		D (D represents a maximal response of < 40%)	F (F represents a maximal response of > 60%)	5.68 to 6.15	< 5.68
Fc1cnc(Cl)nc1N1CCCCC1c1cccc(OC(F)(F)F)n1 (stereo not drawn) [compound 131]		D (D represents a maximal response of < 40%)	F (F represents a maximal response of > 60%)	5.68 to 6.15	5.68 to 6.15
Fc1cnc(Cl)nc1N1CCCCC1c1ccccn1 (stereo not drawn) [compound 329]		D (D represents a maximal response of < 40%)	D (D represents a maximal response of < 40%)	> 6.15	> 6.15
COc1ccc(C2CCCCN2c2ncc(C)c(Cl)n2)cc1Br (stereo not drawn) [compound 236]		F (F represents a maximal response of > 60%)	F (F represents a maximal response of > 60%)	< 5.68	< 5.68
Fc1cc(C2CCCCN2Cc2cccc(Cl)c2)cc(C(F)(F)F)c1 (stereo not drawn) [compound 157]		E (E represents a maximal response of 40-60%)	F (F represents a maximal response of > 60%)	< 5.68	< 5.68
Fc1ccc(C2CCCCN2Cc2cc(Cl)ccc2F)cc1Cl (stereo not drawn) [compound 160]		F (F represents a maximal response of > 60%)	F (F represents a maximal response of > 60%)	5.68 to 6.15	5.68 to 6.15
O=C1CCN(c2nc(Cl)ncc2F)C(c2cc(F)cc(C(F)(F)F)c2)C1 (stereo not drawn) [compound 238]		D (D represents a maximal response of < 40%)	E (E represents a maximal response of 40-60%)	< 5.68	< 5.68
CC1CCN(S(=O)(=O)c2ccc(Cl)cc2)C1c1ccc(Cl)c(Br)c1 (mixture of isomers) [Compound 99]	> 6.15	D (D represents a maximal response of < 40%)	E (E represents a maximal response of 40-60%)	> 6.15	
[2H]C1(c2ccc(F)c(Br)c2)C(F)CCCN1S(=O)(=O)c1cc(F)ccc1F (stereo not drawn) [Compound 38]		D (D represents a maximal response of < 40%)	F (F represents a maximal response of > 60%)		
FC(F)(F)c1cccc(C2CCCCN2Cc2cc(Cl)cc(Cl)c2)n1 (stereo not drawn) [compound 159]		E (E represents a maximal response of 40-60%)	F (F represents a maximal response of > 60%)	5.68 to 6.15	5.68 to 6.15
COc1ccc(C2C(C)CCN2S(=O)(=O)c2ccc(Cl)cc2)cc1Br (mixture of isomers) [Compound 102]	5.68 to 6.15	E (E represents a maximal response of 40-60%)	F (F represents a maximal response of > 60%)	< 5.68	
Fc1ccc(C(F)(F)F)cc1C1CCCCN1c1ccnc(Cl)n1 (stereo not drawn) [compound 403]		D (D represents a maximal response of < 40%)	D (D represents a maximal response of < 40%)	> 6.15	> 6.15
Fc1cc(C2CCCCCN2c2nc(Cl)ncc2F)cc(C(F)(F)F)c1 (stereo not drawn) [compound 252]	< 5.68	E (E represents a maximal response of 40-60%)	F (F represents a maximal response of > 60%)	< 5.68	
COc1ccc(C2CCCCN2S(=O)(=O)c2ccc(C)cc2)cc1Br (stereo not drawn) [compound 12]		E (E represents a maximal response of 40-60%)	F (F represents a maximal response of > 60%)	< 5.68	5.68 to 6.15
